Measurements from US9309242B2, “Substituted pyrido[2,3-b]pyrazines as FGFR kinase inhibitors” (priority 2011, dated 2016).
Structures can show the parent of a compound that is named as a salt. Where two headings read alike, the source gives them in different places.

Experiments:
FGFR1 (h) = FGFR1 (h) (Homo sapiens, UniProt P11362); assay: FGFR1 (enzymatic assay), TR-FRET; type: biochemical; conditions: read-out: FGFR 1 pIC50 (converted)
FGFR2 (h) = FGFR2 (h) (Homo sapiens, UniProt P21802); assay: FGFR2 (enzymatic assay), TR-FRET; type: biochemical; conditions: enzymatic assay, read-out: FGFR 2 pIC50 (converted)
FGFR2 (h), sequence (P21802 22-821): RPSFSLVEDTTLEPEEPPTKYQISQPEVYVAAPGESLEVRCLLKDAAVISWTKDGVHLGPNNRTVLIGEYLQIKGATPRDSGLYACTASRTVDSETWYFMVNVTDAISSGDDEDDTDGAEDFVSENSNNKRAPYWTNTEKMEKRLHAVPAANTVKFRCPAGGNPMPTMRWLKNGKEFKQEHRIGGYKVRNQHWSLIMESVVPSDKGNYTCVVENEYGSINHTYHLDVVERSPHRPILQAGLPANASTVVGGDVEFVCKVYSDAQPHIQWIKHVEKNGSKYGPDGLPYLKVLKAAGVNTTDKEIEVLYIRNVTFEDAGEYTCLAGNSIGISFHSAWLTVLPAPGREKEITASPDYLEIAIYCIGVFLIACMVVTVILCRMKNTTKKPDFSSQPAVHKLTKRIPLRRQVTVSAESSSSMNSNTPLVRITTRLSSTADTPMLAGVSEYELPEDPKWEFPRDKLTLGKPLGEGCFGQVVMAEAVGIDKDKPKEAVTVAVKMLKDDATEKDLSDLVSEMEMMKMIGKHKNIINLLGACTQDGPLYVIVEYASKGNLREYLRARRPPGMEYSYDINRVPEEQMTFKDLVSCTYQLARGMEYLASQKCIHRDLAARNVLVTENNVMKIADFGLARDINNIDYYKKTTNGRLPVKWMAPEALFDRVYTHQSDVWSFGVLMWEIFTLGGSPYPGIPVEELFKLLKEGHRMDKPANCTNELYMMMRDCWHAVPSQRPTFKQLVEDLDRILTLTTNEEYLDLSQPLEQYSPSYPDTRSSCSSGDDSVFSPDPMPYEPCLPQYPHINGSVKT
Description: In a final reaction volume of 30 μL, FGFR2 (h) (150 ng/ml) was incubated with 50 mM HEPES pH 7.5, 6 mM MnCl2, 1 mM DTT, 0.1 mM Na3VO4, 0.01% Triton-X-100, 500 nM Btn-Flt3 and 0.4 μM ATP in the presence of compound (1% DMSO final).

FGFR3 (h) = FGFR3 (h) (Homo sapiens, UniProt P22607); assay: FGFR3 (enzymatic assay), TR-FRET; type: biochemical; conditions: read-out: FGFR 3 pIC50 (converted)
Source text: Time-Resolved Fluorescence Resonance Energy Transfer (TR-FRET) signal (ex340 nm.

FGFR4 (h) = FGFR4 (h) (Homo sapiens, UniProt P22455); assay: FGFR4 (enzymatic assay), TR-FRET; type: biochemical; conditions: FGFR 4 pIC50, enzymatic assay
FGFR4 (h), sequence (P22455 22-802): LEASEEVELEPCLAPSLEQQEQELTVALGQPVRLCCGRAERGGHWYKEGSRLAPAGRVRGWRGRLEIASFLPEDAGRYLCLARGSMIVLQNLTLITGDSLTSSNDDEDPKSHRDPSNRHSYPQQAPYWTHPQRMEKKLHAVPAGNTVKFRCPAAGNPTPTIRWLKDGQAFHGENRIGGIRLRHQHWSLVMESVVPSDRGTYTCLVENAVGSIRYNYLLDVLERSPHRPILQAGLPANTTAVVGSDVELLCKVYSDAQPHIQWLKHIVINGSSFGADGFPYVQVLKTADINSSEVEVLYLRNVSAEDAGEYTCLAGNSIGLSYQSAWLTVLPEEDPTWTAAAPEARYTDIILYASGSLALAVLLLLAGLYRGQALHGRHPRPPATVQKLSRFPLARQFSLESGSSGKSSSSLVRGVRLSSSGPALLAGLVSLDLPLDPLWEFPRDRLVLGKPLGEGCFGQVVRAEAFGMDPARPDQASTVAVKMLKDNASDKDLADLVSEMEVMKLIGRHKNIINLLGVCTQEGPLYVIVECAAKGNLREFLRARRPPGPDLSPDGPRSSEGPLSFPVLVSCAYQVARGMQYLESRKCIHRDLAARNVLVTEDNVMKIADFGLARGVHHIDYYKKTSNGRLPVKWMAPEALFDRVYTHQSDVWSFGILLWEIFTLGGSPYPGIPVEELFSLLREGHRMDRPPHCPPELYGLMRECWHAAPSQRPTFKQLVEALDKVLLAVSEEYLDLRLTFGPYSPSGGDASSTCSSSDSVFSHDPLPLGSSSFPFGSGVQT

KDR (h) = KDR (h) (Homo sapiens, UniProt P35968); assay: KDR (VEGFR2) (enzymatic assay), TR-FRET; type: biochemical; conditions: read-out: VEGFR 2 (KDR) pIC50 (converted)
Description: KDR (VEGFR2) (Enzymatic Assay)
In a final reaction volume of 30 μL, KDR (h) (150 ng/ml) was incubated with 50 mM HEPES pH 7.5, 6 mM MnCl2, 1 mM DTT, 0.1 mM Na3VO4, 0.01% Triton-X-100, 500 nM Btn-Flt3 and 3 μM ATP in the presence of compound (1% DMSO final). After incubation for 120 minutes at room temperature the reaction was stopped with 2.27 nM EU-anti P-Tyr, 7 mM EDTA, 31.25 nM SA-XL-665 and 0.02% BSA which was present for 60 minutes at room temperature. Time-Resolved Fluorescence Resonance Energy Transfer (TR-FRET) signal (ex340 nm. Em 620 nm, em 655 nm) was measured afterwards and results are expressed in RFU (Relative Fluorescence Units).

[1] = target: T1, Ba/F3-FGFR1-transfected cells (Homo sapiens, UniProt P11362); assay: Ba/F3-FGFR1 (minus IL3) cellular proliferation assay, Alamar Blue; type: cell-based
T1 construct: BAF3-FGFR1 (MIN IL3) pIC50; other: minus IL3
Description: (§1) Ba/F3-FGFR1 (Minus IL3 or Plus IL3) (Cellular Proliferation Assay)
(§2) In a 384 well plate, 100 nl of compound dilution in DMSO was sprayed before adding 50 μl cell culture medium (phenol red free RPMI-1640, 10% FBS, 2 mM L-Glutamine and 50 μg/ml Gentamycin) containing 20000 cells per well of Ba/F3-FGFR1-transfected cells. Cells were put in an incubator at 37° C. and 5% CO2. After 24 hours, 10 μl of Alamar Blue solution (0.5 mM K3Fe(CN)6, 0.5 mM K4Fe(CN)6, 0.15 mM Resazurin and 100 mM Phosphate Buffer) was added to the wells, incubated for 4 hours at 37° C. and 5% CO2 before RFU's (Relative Fluorescence Units) (ex. 540 nm., em. 590 nm.) were measured in a fluororescence plate reader.

[2] = tested on: Ba/F3-FGFR1-transfected cells; assay: Ba/F3-FGFR1 (plus IL3) cellular proliferation assay, counterscreen with 10 ng/ml murine IL3; type: cell-based; conditions: plus IL3 (10 ng/ml murine IL3, counterscreen)
Description: as §1, §2
(§3) As a counterscreen the same experiment was performed in the presence of 10 ng/ml murine IL3.

[3] = target: T2, Ba/F3-FGFR3-transfected cells (Homo sapiens, UniProt P22607); assay: Ba/F3-FGFR3 (minus IL3) cellular proliferation assay, Alamar Blue; type: cell-based
T2 construct: BAF3-FGFR3 (MIN IL3) pIC50; other: minus IL3
T2 sequence (P22607 whole entry, change not shown): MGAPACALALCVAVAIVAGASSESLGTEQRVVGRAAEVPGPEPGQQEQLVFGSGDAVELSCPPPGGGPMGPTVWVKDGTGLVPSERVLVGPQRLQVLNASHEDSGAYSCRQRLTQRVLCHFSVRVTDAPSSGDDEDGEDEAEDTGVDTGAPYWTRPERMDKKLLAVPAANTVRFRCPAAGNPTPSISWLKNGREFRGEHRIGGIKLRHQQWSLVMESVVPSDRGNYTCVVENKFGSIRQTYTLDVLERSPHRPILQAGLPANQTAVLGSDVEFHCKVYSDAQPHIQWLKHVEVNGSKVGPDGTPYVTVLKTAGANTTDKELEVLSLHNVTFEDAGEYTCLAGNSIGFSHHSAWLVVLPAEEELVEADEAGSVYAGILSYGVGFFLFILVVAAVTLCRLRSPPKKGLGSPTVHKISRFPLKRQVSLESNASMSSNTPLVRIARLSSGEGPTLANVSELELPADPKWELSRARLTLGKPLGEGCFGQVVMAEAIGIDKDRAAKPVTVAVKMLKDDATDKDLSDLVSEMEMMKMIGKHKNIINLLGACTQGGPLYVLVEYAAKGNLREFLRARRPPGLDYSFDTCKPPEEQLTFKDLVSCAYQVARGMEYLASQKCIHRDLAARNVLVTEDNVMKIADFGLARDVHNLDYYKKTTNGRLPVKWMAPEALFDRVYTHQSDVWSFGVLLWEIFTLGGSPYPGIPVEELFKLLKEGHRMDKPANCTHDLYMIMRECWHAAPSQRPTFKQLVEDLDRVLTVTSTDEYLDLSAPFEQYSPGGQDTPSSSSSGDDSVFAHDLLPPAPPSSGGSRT
Description: (§4) Ba/F3-FGFR3 (Minus IL3 or Plus IL3) (Cellular Proliferation Assay)
as §2, with “Ba/F3-FGFR3-transfected” for “Ba/F3-FGFR1-transfected”, “reader. […]” for “reader.”

[4] = tested on: Ba/F3-FGFR3-transfected cells; assay: Ba/F3-FGFR3 (plus IL3) cellular proliferation assay, counterscreen with 10 ng/ml murine IL3; type: cell-based; conditions: plus IL3 (10 ng/ml murine IL3, counterscreen)
Description: as §4
as §2, with “Ba/F3-FGFR3-transfected” for “Ba/F3-FGFR1-transfected”
as §3

[5] = target: T3, Ba/F3-KDR-transfected cells (Homo sapiens, UniProt P35968); assay: Ba/F3-KDR (minus IL3) cellular proliferation assay, Alamar Blue; type: cell-based
T3 construct: BAF3-KDR (MIN IL3) pIC50; other: minus IL3
T3 sequence (P35968 whole entry, change not shown): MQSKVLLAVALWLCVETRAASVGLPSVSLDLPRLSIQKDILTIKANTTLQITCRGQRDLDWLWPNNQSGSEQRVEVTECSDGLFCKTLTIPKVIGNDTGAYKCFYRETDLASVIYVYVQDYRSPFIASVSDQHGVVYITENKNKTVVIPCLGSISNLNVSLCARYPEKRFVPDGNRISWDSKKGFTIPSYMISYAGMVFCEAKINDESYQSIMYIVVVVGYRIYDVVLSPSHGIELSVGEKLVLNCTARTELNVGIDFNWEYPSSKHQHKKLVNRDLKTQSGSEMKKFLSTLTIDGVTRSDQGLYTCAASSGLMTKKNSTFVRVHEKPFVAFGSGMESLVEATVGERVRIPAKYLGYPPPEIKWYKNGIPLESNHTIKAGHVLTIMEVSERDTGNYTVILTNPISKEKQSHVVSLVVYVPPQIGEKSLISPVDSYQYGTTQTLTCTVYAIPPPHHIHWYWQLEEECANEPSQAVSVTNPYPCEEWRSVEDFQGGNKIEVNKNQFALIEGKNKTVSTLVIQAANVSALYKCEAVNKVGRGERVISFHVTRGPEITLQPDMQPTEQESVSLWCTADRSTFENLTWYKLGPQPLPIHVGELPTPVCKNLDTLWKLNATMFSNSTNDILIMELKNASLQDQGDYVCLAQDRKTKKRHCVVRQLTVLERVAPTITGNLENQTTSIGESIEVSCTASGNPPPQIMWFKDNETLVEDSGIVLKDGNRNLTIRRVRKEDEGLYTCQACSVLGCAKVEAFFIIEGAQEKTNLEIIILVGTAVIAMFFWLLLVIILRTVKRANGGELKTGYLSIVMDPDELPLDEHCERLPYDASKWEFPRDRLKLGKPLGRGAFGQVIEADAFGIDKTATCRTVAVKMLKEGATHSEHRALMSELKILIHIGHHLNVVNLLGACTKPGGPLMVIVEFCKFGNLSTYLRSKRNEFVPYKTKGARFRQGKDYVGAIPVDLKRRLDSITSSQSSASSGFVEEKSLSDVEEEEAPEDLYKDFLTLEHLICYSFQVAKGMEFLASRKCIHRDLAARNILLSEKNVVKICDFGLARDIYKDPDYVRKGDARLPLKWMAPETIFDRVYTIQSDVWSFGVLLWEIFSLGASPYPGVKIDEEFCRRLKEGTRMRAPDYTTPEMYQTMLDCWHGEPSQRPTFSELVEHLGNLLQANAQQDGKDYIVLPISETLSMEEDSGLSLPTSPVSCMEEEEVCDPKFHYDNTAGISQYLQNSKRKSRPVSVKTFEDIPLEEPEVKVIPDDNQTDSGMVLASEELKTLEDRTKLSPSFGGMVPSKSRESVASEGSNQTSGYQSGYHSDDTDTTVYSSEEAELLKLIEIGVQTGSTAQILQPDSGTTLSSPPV
Description: (§5) Ba/F3-KDR (Minus IL3 or Plus IL3) (Cellular Proliferation Assay)
as §2, with “n1” for “nl”, “Ba/F3-KDR-transfected” for “Ba/F3-FGFR1-transfected”, “reader. […]” for “reader.”

[6] = tested on: Ba/F3-KDR-transfected cells; assay: Ba/F3-KDR (plus IL3) cellular proliferation assay, counterscreen with 10 ng/ml murine IL3; type: cell-based; conditions: plus IL3 (10 ng/ml murine IL3, counterscreen)
Description: as §5
as §2, with “n1” for “nl”, “Ba/F3-KDR-transfected” for “Ba/F3-FGFR1-transfected”
as §3

[7] = target: Ba/F3-FGFR4-transfected cells (Homo sapiens, UniProt P22455); assay: Ba/F3-FGFR4 cellular proliferation assay, Alamar Blue; type: cell-based
Description: Ba/F3-FGFR4 (Cellular Proliferation Assay)
as §2, with “n1” for “nl”, “Ba/F3-FGFR4-transfected” for “Ba/F3-FGFR1-transfected”

[8] = average values if tested multiple times

FGFR1 (h), sequence (P11362 22-822): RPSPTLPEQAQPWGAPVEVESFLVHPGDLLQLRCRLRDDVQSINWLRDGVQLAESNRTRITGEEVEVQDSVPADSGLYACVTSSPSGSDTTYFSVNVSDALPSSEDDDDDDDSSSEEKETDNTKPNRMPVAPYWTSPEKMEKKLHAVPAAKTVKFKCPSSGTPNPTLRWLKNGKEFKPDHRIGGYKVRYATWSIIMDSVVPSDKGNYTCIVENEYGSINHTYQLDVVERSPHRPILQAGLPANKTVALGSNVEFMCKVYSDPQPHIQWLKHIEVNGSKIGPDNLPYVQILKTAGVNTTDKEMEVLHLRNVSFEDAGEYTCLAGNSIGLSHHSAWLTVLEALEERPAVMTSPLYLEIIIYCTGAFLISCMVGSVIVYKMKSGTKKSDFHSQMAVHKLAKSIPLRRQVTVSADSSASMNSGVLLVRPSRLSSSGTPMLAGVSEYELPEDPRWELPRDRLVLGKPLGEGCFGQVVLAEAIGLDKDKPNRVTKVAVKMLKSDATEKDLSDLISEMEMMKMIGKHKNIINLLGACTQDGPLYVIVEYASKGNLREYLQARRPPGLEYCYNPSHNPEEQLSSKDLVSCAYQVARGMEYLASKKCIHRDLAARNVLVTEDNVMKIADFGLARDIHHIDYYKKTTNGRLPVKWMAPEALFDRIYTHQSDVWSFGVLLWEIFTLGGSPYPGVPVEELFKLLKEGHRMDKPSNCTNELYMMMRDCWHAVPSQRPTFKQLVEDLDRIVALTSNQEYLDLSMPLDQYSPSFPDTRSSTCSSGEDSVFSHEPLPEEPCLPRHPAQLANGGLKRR

## COc1cc(OC)cc(N(CC(O)C(F)(F)F)c2ccc3ncc(-c4cnn(C)c4)nc3n2)c1 (single isomer, unassigned) [Compound 34]
FGFR1 (h); [8]
  IC50: 3.55 nM
FGFR2 (h); [8]
  IC50: 4.57 nM
FGFR3 (h); [8]
  IC50: 1.35 nM
FGFR4 (h); [8]
  IC50: 7.08 nM
KDR (h); [8]
  IC50: 331 nM
[1]
  BAF3-FGFR1 (MIN IL3) pIC50: 7.18
[2]
  BAF3-FGFR1 (PLUS IL3) pIC50: <5
[3]
  BAF3-FGFR3 (MIN IL3) pIC50: 6.97
[4]
  BAF3-FGFR3 (PLUS IL3) pIC50: <5
[5]
  BAF3-KDR (MIN IL3) pIC50: <5
[6]
  BAF3-KDR (PLUS IL3) pIC50: <5
[7]
  BAF3-FGFR4 pIC50: 6.64

## COCC(O)CN(c1ccc2ncc(-c3cnn(C)c3)nc2n1)c1cc(OC)cc(OC)c1F (single isomer, unassigned) [Compound 59]
FGFR1 (h); [8]
  IC50: ~1.78 nM
FGFR2 (h); [8]
  IC50: 1.82 nM
FGFR3 (h); [8]
  IC50: 1.23 nM
FGFR4 (h); [8]
  IC50: 2.19 nM
KDR (h); [8]
  IC50: 25.1 nM
[1]
  BAF3-FGFR1 (MIN IL3) pIC50: 7.60
[2]
  BAF3-FGFR1 (PLUS IL3) pIC50: <5
[3]
  BAF3-FGFR3 (MIN IL3) pIC50: 7.71
[4]
  BAF3-FGFR3 (PLUS IL3) pIC50: <5
[5]
  BAF3-KDR (MIN IL3) pIC50: 5.73
[6]
  BAF3-KDR (PLUS IL3) pIC50: <5
[7]
  BAF3-FGFR4 pIC50: 7.19

## COc1cc(OC)c(F)c(N(CC(O)COC(C)C)c2ccc3ncc(-c4cnn(C)c4)nc3n2)c1 (single isomer, unassigned) [Compound 78]
FGFR1 (h); [8]
  IC50: 2.4 nM
FGFR2 (h); [8]
  IC50: 2.75 nM
FGFR3 (h); [8]
  IC50: 2.34 nM
FGFR4 (h); [8]
  IC50: 2.51 nM
KDR (h); [8]
  IC50: 15.1 nM
[1]
  BAF3-FGFR1 (MIN IL3) pIC50: 7.59
[2]
  BAF3-FGFR1 (PLUS IL3) pIC50: <5
[3]
  BAF3-FGFR3 (MIN IL3) pIC50: 7.70
[4]
  BAF3-FGFR3 (PLUS IL3) pIC50: <5
[5]
  BAF3-KDR (MIN IL3) pIC50: 6.13
[6]
  BAF3-KDR (PLUS IL3) pIC50: <5
[7]
  BAF3-FGFR4 pIC50: 7.03

## COc1cc(OC)c(F)c(N(CC(O)COC(C)C)c2ccc3ncc(-c4cnn(C)c4)nc3n2)c1 (single isomer, unassigned) [Compound 79]
FGFR1 (h); [8]
  IC50: 2.34 nM
FGFR2 (h); [8]
  IC50: 2.95 nM
FGFR3 (h); [8]
  IC50: 1.66 nM
FGFR4 (h); [8]
  IC50: 2 nM
KDR (h); [8]
  IC50: 25.7 nM
[1]
  BAF3-FGFR1 (MIN IL3) pIC50: 7.58
[2]
  BAF3-FGFR1 (PLUS IL3) pIC50: <5
[3]
  BAF3-FGFR3 (MIN IL3) pIC50: 7.63
[4]
  BAF3-FGFR3 (PLUS IL3) pIC50: <5
[5]
  BAF3-KDR (MIN IL3) pIC50: 5.73
[6]
  BAF3-KDR (PLUS IL3) pIC50: <5
[7]
  BAF3-FGFR4 pIC50: 7.28

## COc1ccc(Cl)c(N(CC2CCC(=O)N2)c2ccc3ncc(-c4cnn(C)c4)nc3n2)c1Cl (single isomer, unassigned) [Compound 91]
FGFR1 (h)
  IC50: 219 nM
FGFR2 (h)
  IC50: 145 nM
FGFR3 (h)
  IC50: 138 nM
FGFR4 (h)
  IC50: > 1000 nM
KDR (h)
  IC50: 741 nM
[1]
  BAF3-FGFR1 (MIN IL3) pIC50: 5.13
[2]
  BAF3-FGFR1 (PLUS IL3) pIC50: <5
[3]
  BAF3-FGFR3 (MIN IL3) pIC50: 5.17
[4]
  BAF3-FGFR3 (PLUS IL3) pIC50: <5
[5]
  BAF3-KDR (MIN IL3) pIC50: <5
[6]
  BAF3-KDR (PLUS IL3) pIC50: <5
[7]
  BAF3-FGFR4 pIC50: <5

## COc1cc(OC)c(F)c(N(CC2CCOC2)c2ccc3ncc(-c4cnn(C)c4)nc3n2)c1 (single isomer, unassigned) [Compound 171]
FGFR1 (h)
  IC50: 3.55 nM
FGFR2 (h)
  IC50: 2.57 nM
FGFR3 (h)
  IC50: 1.55 nM
FGFR4 (h)
  IC50: 3.72 nM
KDR (h)
  IC50: ~14.5 nM
[1]
  BAF3-FGFR1 (MIN IL3) pIC50: 7.10
[2]
  BAF3-FGFR1 (PLUS IL3) pIC50: <5
[3]
  BAF3-FGFR3 (MIN IL3) pIC50: 7.28
[4]
  BAF3-FGFR3 (PLUS IL3) pIC50: <5
[5]
  BAF3-KDR (MIN IL3) pIC50: 5.63
[6]
  BAF3-KDR (PLUS IL3) pIC50: <5
[7]
  BAF3-FGFR4 pIC50: 6.55

## COc1cc(OC)c(F)c(N(CC2CCOC2)c2ccc3ncc(-c4cnn(C)c4)nc3n2)c1 (single isomer, unassigned) [Compound 172]
FGFR1 (h)
  IC50: 3.72 nM
FGFR2 (h)
  IC50: 4.47 nM
FGFR3 (h)
  IC50: 3.02 nM
FGFR4 (h)
  IC50: ~15.8 nM
KDR (h)
  IC50: 45.7 nM
[1]
  BAF3-FGFR1 (MIN IL3) pIC50: 6.54
[2]
  BAF3-FGFR1 (PLUS IL3) pIC50: <5
[3]
  BAF3-FGFR3 (MIN IL3) pIC50: ~7.06
[4]
  BAF3-FGFR3 (PLUS IL3) pIC50: <5
[5]
  BAF3-KDR (MIN IL3) pIC50: 5.35
[6]
  BAF3-KDR (PLUS IL3) pIC50: <5
[7]
  BAF3-FGFR4 pIC50: 6.33

## COc1cc(OC)c(F)c(N(Cc2ncc[nH]2)c2ccc3ncc(-c4cnn(C)c4)nc3n2)c1 [23-Sulfate salt]
FGFR1 (h); [8]
  IC50: 0.589 nM
FGFR2 (h); [8]
  IC50: 2.09 nM
FGFR3 (h); [8]
  IC50: 1.12 nM
FGFR4 (h); [8]
  IC50: 1.26 nM
KDR (h); [8]
  IC50: 7.94 nM
[1]
  BAF3-FGFR1 (MIN IL3) pIC50: 8.94
[2]
  BAF3-FGFR1 (PLUS IL3) pIC50: <5
[3]
  BAF3-FGFR3 (MIN IL3) pIC50: ~8.64
[4]
  BAF3-FGFR3 (PLUS IL3) pIC50: <5
[5]
  BAF3-KDR (MIN IL3) pIC50: 6.51
[6]
  BAF3-KDR (PLUS IL3) pIC50: <5
[7]
  BAF3-FGFR4 pIC50: 7.88
